The source of these data is patent publication US20240189297A1 (priority 2021, published 2024).

The conditions of series [1]: free base (non-protonated) nicotine; cited from earlier work.

Where two headings read alike, the source gives them in different places.

As to `CN1CCCC1c1cccnc1` (stereo not drawn) [nicotine, 3-(1-methyl-2-pyrrolidinyl) pyridine], the pKa value entry in series [1] is given as “about 8”. The “partition coefficient (oil phase : aqueous phase)” value is recorded as “greater than 1” (Samples 1-4: MCT oil vs DI water, basified DI water pH 7.4, artificial saliva pH 6.8, acidified DI water pH 2) and “less than 1” (Samples 5-8: MCT, triacetin or triolein oil vs 1M acetic acid pH adjuster, pH 2).
